“Also recorded” adds a separate entry of the source. Marks after values point to notes of the source that are not given here.
Key:
[1] = system: (S)-selective ω-transaminase derived from O. anthropi; assay: Substrate specificity of ω-transaminase toward 11 racemic amines (initial rate, relative reactivity); format: biochemical, Ochrobactrum anthropi; details: for Relative reactivity (%): PLP 0.1 mM, 10 min, activity toward α-methylbenzylamine defined as 100%; for Activity toward (S)-1-aminoindane relative to (S)-α-methylbenzylamine: (S)-enantiomer compared with (S)-α-methylbenzylamine, value in parentheses in Table 13
Protocol: An investigation was made as to the substrate specificities of the (S)-selective ω-transaminase derived from O. anthropi, which was purified in Example 7, toward 11 amines: α-methylbenzylamine 1a, 4-fluoro-α-methylbenzylamine 1b, α-ethylbenzylamine 1c, 1-methyl-3-phenylpropylamine 1d, 1-aminoindane 1e, sec-butylamine 1f, cyclopropylethylamine 1g, 2-aminopentane 1h, 2-aminooctane 1i, 1-methoxy-2-propylamine 1j, and alaninol 1k. 0.125 U/ml of the (S)-selective transaminase derived from O. anthropi was added to each racemic amine (10 mM), pyruvate (10 mM), PLP (0.1 mM), and phosphate buffer (50 mM, pH 7.5) at 37° C. After the mixture was allowed to react for 10 min, the amount of L-alanine produced was measured via GITC derivatization. All activities were measured in the initial reaction rate range of ≦5% conversion. The initial reaction rate for α-methylbenzylamine was measured to be 0.033 mM/min. When the activity of the ω-transaminase toward α-methylbenzylamine was defined as 100%, the activities of the ω-transaminase toward 4-fluoro-α-methylbenzylamine 1b, α-ethylbenzylamine 1c, 1-methyl-3-phenylpropylamine 1d, and 1-aminoindane 1e as arylalkylamines were 91%, 18%, 70%, and 64%, respectively. The activity of the ω-transaminase toward (S)-1-aminoindane was 153% of that toward (S)-α-methylbenzylamine. The activities of the ω-transaminase toward sec-butylamine 1f, cyclopropylethylamine 1g, 2-aminopentane 1h, 2-aminooctane 1i, 1-methoxy-2-propylamine 1j, and alaninol 1k as alkylamines were 54%, 63%, 29%, 146%, 60%, and 63%, respectively.

[2] = system: (S)-selective ω-transaminase derived from O. anthropi; assay: Substrate specificity of (S)-selective ω-transaminase toward keto acids; format: biochemical, Ochrobactrum anthropi; details: for Activity of (S)-selective ω-transaminase toward keto acid (in words): Table 9, speaks of the (S)-selective ω-transaminase without naming O. anthropi or P. denitrificans; for Acetophenone (mM) O. anthropi: keto acid 20 mM, (S)-α-methylbenzylamine 20 mM, 50 mM potassium phosphate pH 7, 37° C., 10 min
Protocol: (§1) The substrate specificity of the (S)-selective ω-transaminase was confirmed in each keto acid (20 mM), (S)-α-methylbenzylamine (20 mM) and potassium phosphate (50 mM, pH 7). After the reactions were carried out at 37° C. for 10 min, the amounts of acetophenone produced were measured.

[3] = system: (S)-selective ω-transaminase derived from P. denitrificans; assay: as above; format: biochemical, Paracoccus denitrificans; details: for Acetophenone (mM) P. denitrificans: keto acid 20 mM, (S)-α-methylbenzylamine 20 mM, 50 mM potassium phosphate pH 7, 37° C., 10 min
Protocol: as §1

[4] = system: D-amino acid transaminase; assay: Substrate specificity of purified D-amino acid transaminase toward keto acids (amino acceptors); format: biochemical, Bacillus sphaericus; details: for Activity of D-amino acid transaminase toward amino acceptor (in words): Tables 7 and 8; for Pyruvate (mM) generated: D-alanine 20 mM as amino donor
Protocol: Each of amino acceptors shown in Tables 7 and 8 and D-alanine or D-homoalanine as substrates were allowed to react with the D-amino acid transaminase purified in Example 7. Specifically, each amino acceptor (20 mM), D-alanine or D-homoalanine (20 mM), and potassium phosphate (50 mM, pH 7) were allowed to react with 0.1 U/ml of the D-amino acid transaminase at 37° C. for 10 min, and the amount of a keto acid (pyruvate or 2-oxobutyrate) generated was measured.

[5] = system: (S)-selective ω-transaminase derived from O. anthropi; format: biochemical, Ochrobactrum anthropi; details: for Activity of (S)-selective ω-transaminase toward amine (in words): Table 10, speaks of the (S)-selective ω-transaminase without naming O. anthropi or P. denitrificans; for L-alanine (mM) O. anthropi: amine 20 mM (40 mM racemic sec-butylamine), pyruvate as acceptor, 50 mM potassium phosphate pH 7, 37° C., 10 min
Protocol: (§2) The substrate specificity of the (S)-selective ω-transaminase was confirmed in each amine (20 mM), (S)-amine (20 mM, in 40 mM racemic sec-butylamine) and potassium phosphate (50 mM, pH 7). After the reactions were carried out at 37° C. for 10 min, the amounts of L-alanine produced were measured.

[6] = system: (S)-selective ω-transaminase derived from P. denitrificans; assay: Substrate specificity of (S)-selective ω-transaminase toward amines (L-alanine from pyruvate); format: biochemical, Paracoccus denitrificans; details: amine 20 mM (40 mM racemic sec-butylamine), pyruvate as acceptor, 50 mM potassium phosphate pH 7, 37° C., 10 min
Protocol: as §2

[7] = system: D-amino acid transaminase; assay: Effect of L-amino acid concentration on activity of D-amino acid transaminase; format: biochemical, Bacillus sphaericus; details: 0-20 mM L-homoalanine in 20 mM D-homoalanine, 20 mM pyruvate, pH 7, 37° C., 10 min; 2-oxobutyrate measured
Protocol: For continuous deracemization of a racemic amino acid with the D-amino acid transaminase purified in Example 7, L-amino acid as a final product should not affect the activity of the D-amino acid transaminase. Deterioration in the activity of the enzyme by the final product makes it difficult to induce continuous reactions. The activities of the D-amino acid transaminase were confirmed at different concentrations (0, 1, 3, 5, 7, 10, 15, and 20 mM) of L-homoalanine in 20 mM D-homoalanine, 20 mM pyruvate, and 50 mM potassium phosphate (pH 7). After the reactions were carried out at 37° C. for 10 min, the amounts of 2-oxobutyrate produced were measured.

[8] = racemic amine 10 mM, pyruvate 10 mM, 0.125 U/ml enzyme, pH 7.5, 37° C.
[9] = amino acceptor 20 mM, 0.1 U/ml enzyme, 50 mM potassium phosphate pH 7, 37° C., 10 min

Row | Structure (SMILES) | Relative reactivity (%) [1, 8] | Acetophenone (mM) O. anthropi [2] [mM] | Acetophenone (mM) P. denitrificans [3] [mM] | Activity of D-amino acid transaminase toward amino acceptor (in words) [4] | Pyruvate (mM) generated [4, 9] [mM] | also measured
1 | CCCC(C)N (racemic) [Substrate 1h, 2-aminopentane] | 29% |  |  |  |  | 
2 | CC(N)CCc1ccccc1 (racemic) [Substrate 1d, 1-methyl-3-phenylpropylamine] | 70% |  |  |  |  | 
3 | CC(N)c1ccc(F)cc1 (racemic) [Substrate 1b, 4-fluoro-α-methylbenzylamine] | 91% |  |  |  |  | 
4 | CCCCC(=O)C(=O)O [2-Ketohexanoate] |  | 0.006 | 0.713 | have activity | 0.531 | Activity of (S)-selective ω-transaminase toward keto acid (in words) [2]: have activity
5 | CC(N)CO (stereo not drawn) [Substrate 1k, alaninol] | 63% |  |  |  |  | 
6 | COCC(C)N (racemic) [Substrate 1j, 1-methoxy-2-propylamine] | 60% |  |  |  |  | 
7 | O=C(O)CCC(=O)C(=O)O [α-Ketoglutarate] |  | -0.001 | -0.003 | have activity; also recorded: had activity | 0.971 | Activity of (S)-selective ω-transaminase toward keto acid (in words) [2]: no activity
8 | CC(C)(C)C(=O)C(=O)O [Trimethylpyruvate] |  | -0.002 | -0.004 |  | 0.000 | 
9 | O=CC(=O)Oc1ccccc1 [Phenyl glyoxylate] |  | -0.005 | -0.008 |  | 0.000 | 
10 | CC(C)CC(=O)C(=O)O [4-Methyl-2-oxopentanoate] |  | 0.005 | 0.175 | have activity | 0.073 | Activity of (S)-selective ω-transaminase toward keto acid (in words) ([3]; Table 9, marked (P. denitrificans)): have activity
11 | CC(N)c1ccccc1 (racemic) [Substrate 1a, α-methylbenzylamine] | 100^c % |  |  |  |  | Initial reaction rate ([1]; racemic amine 10 mM, pyruvate 10 mM, 0.125 U/ml enzyme, pH 7.5, 37° C., ≦5% conversion): 0.033 mM/min
12 | C[C@H](N)c1ccccc1 [(S)-α-methylbenzylamine] |  |  |  |  |  | Activity of (S)-selective ω-transaminase toward amine (in words) [5]: have activity; L-alanine (mM) O. anthropi [5]: 0.715 ± 0.082 mM; L-alanine (mM) P. denitrificans [6]: 0.451 ± 0.077 mM
13 | O=C(O)C(=O)CS [Mercaptopyruvate] |  | 0.012 | 0.008 | have activity | 0.022 | 
14 | N[C@H]1CCc2ccccc21 [(S)-1-aminoindane] |  |  |  |  |  | Activity toward (S)-1-aminoindane relative to (S)-α-methylbenzylamine [1]: 153%
15 | O=C(O)C(=O)CF [Fluoropyruvate] |  | 0.554 | 0.339 | have activity | 0.053 | Activity of (S)-selective ω-transaminase toward keto acid (in words) [2]: have activity
16 | CCCCCCC(C)N (racemic) [Substrate 1i, 2-aminooctane] | 146% |  |  |  |  | 
17 | CC(C)C(=O)C(=O)O [3-Methyl-2-oxobutyrate] |  | -0.001 | -0.002 | have activity | 0.014 | 
18 | CC(C)N [Isopropylamine] |  |  |  |  |  | Activity of (S)-selective ω-transaminase toward amine (in words) [5]: have activity; L-alanine (mM) O. anthropi [5]: 0.309 ± 0.050 mM; L-alanine (mM) P. denitrificans [6]: 0.033 ± 0.002 mM
19 | O=C(O)C(=O)C12CC3CC(CC(O)(C3)C1)C2 [2-(3-Hydroxy-1-adamantyl)-oxoethanoate] |  | -0.002 | -0.004 |  | 0.000 | 
20 | CC[C@H](N)C(=O)O [L-homoalanine] |  |  |  |  |  | Effect of L-amino acid on activity of D-amino acid transaminase (FIG. 1) [7]: did not lose its activity
21 | CCCC(=O)C(=O)O [2-Oxopentanoate] |  | 0.078 | 1.032 | have activity | 0.882 | Activity of (S)-selective ω-transaminase toward keto acid (in words) [2]: have activity; 2-Oxobutyrate (mM) generated ([4]; amino acceptor 20 mM, D-homoalanine 20 mM as amino donor, 0.1 U/ml enzyme, 50 mM potassium phosphate pH 7, 37° C., 10 min): 0.651 mM
22 | CCC(C)N (racemic) [Substrate 1f, sec-butylamine] | 54% |  |  |  |  | Activity of (S)-selective ω-transaminase toward amine (in words) [5]: have activity; L-alanine (mM) O. anthropi [5]: 0.164 ± 0.019 mM; L-alanine (mM) P. denitrificans [6]: 0.000 ± 0.000 mM
23 | O=CC(=O)O [Glyoxylate] |  | 1.733 | 1.076 |  |  | Activity of (S)-selective ω-transaminase toward keto acid (in words) [2]: have activity
24 | CCC(N)c1ccccc1 (racemic) [Substrate 1c, α-ethylbenzylamine] | 18% |  |  |  |  | 
25 | NC1CCc2ccccc21 (racemic) [Substrate 1e, 1-aminoindane] | 64% |  |  |  |  | Activity toward (S)-1-aminoindane relative to (S)-α-methylbenzylamine [1]: 153%
26 | CCC(C)C(=O)C(=O)O (stereo not drawn) [3-Methyl-2-oxopentanoate] |  | 0.001 | -0.004 |  |  | 
27 | CCC(=O)C(=O)O [2-Oxobutyrate] |  | 0.173 | 0.821 | have activity | 1.375 | Activity of (S)-selective ω-transaminase toward keto acid (in words) [2]: have activity
28 | O=C(O)C(=O)CO [β-Hydroxypyruvate] |  | 0.183 | 0.066 | have activity | 0.079 | Activity of (S)-selective ω-transaminase toward keto acid (in words) [2]: have activity

From patent US9777301B2, “Method for producing optically active amine compounds by deracemization” (INDUSTRY-ACADEMIC COOPERATION FOUNDATION, YONSEI UNIVERSITY, priority 2012, dated 2017)
